The compounds below were run on P. falciparum (NF54 or 3D7 strain) (assay: Assay for P. falciparum proliferation in infected human blood cells (SYBR Green)). Details: NF54 or 3D7 infected human erythrocytes, 72 hours; read-out: EC50 (nM), inhibitory efficacy in delaying P. falciparum proliferation in infected human blood cells.
Assay type: cell-based, Plasmodium falciparum
Procedure, shortened: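 NF54 or 3D7 parasites in O+ human erythrocytes at 2.5% hematocrit and 0.3% parasitemia final, exposed to compounds 72 h at 37 °C under 93% N2/4% CO2/3% O2.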

Row | Compound | EC50
1 | 4-{6-[N-methyl(4-cyanobenzene)amido]imidazo[1,2-a]pyrazin-3-yl}benzamide [Compound 495] | 405 nM

Same assay, conditions: Plasmodium falciparum, Erythrocyte, 72 h, NF54 or 3D7 infected human erythrocytes, 72 hours; read-out: EC50 (nM), inhibitory efficacy in delaying P. falciparum proliferation in infected human blood cells

Row | Compound | EC50
2 | CN(C(=O)c1cn2c(-c3ccc(OC(F)F)cc3)cnc2cn1)c1ccc(S(C)(=O)=O)cc1 [Compound 209, 3-[4-(difluoromethoxy)phenyl]-N-(4-methanesulfonylphenyl)-N-methylimidazo[1,2-a]pyrazine-6-carboxamide] | 2700 nM
3 | CN(C(=O)c1cn2c(-c3ccc(C(F)(F)F)cc3)cnc2cn1)c1nc(-c2ccccc2)cs1 [Compound 423, N-methyl-N-(4-phenyl-1,3-thiazol-2-yl)-3-[4-(trifluoromethyl)phenyl]imidazo[1,2-a]pyrazine-6-carboxamide] | > 9660 nM
4 | CC(=O)Nc1ccc(-c2cnc3cnc(C(=O)N(C)c4ccc(C)cn4)cn23)cn1 [Compound 373, 3-(6-acetamidopyridin-3-yl)-N-methyl-N-(5-methylpyridin-2-yl)imidazo[1,2-a]pyrazine-6-carboxamide] | > 9880 nM
5 | CN(Cc1ccccc1)C(=O)c1cn2c(-c3ccc(C(F)(F)F)cc3)cnc2cn1 [Compound 370, N-benzyl-N-methyl-3-[4-(trifluoromethyl)phenyl]imidazo[1,2-a]pyrazine-6-carboxamide] | 8200 nM
6 | CN(C(=O)c1cn2c(-c3ccc(C(F)(F)F)cc3)cnc2cn1)c1cccc(F)c1 [Compound 137, N-(3-fluorophenyl)-N-methyl-3-[4-(trifluoromethyl)phenyl]imidazo[1,2-a]pyrazine-6-carboxamide] | 226 nM
7 | CN(Cc1cccnc1)C(=O)c1cn2c(-c3ccc(C(F)(F)F)cc3)cnc2cn1 [Compound 194, N-methyl-N-(pyridin-3-ylmethyl)-3-[4-(trifluoromethyl)phenyl]imidazo[1,2-a]pyrazine-6-carboxamide] | 6950 nM
8 | CC(C)c1nc(-c2cnc3cnc(C(=O)N(C)c4ccc(Cl)nc4)cn23)cs1 [Compound 364, N-(6-chloropyridin-3-yl)-N-methyl-3-[2-(propan-2-yl)-1,3-thiazol-4-yl]imidazo[1,2-a]pyrazine-6-carboxamide] | 8240 nM
9 | Cc1ccc(-c2cnc3cnc(C(=O)N(C)c4ccc(Cl)cc4)cn23)cc1 [Compound 432, N-(4-chlorophenyl)-N-methyl-3-(4-methylphenyl)imidazo[1,2-a]pyrazine-6-carboxamide] | 79 nM
10 | CN(C(=O)c1cn2c(-c3ccc(N)nc3)cnc2cn1)c1ccc(C#N)cc1 [Compound 272, 3-(6-aminopyridin-3-yl)-N-(4-cyanophenyl)-N-methylimidazo[1,2-a]pyrazine-6-carboxamide] | 295 nM
11 | CN(C(=O)c1cn2c(-c3ccc4c(cnn4C)c3)cnc2cn1)c1ccc(C#N)cn1 [Compound 83, N-(5-cyanopyridin-2-yl)-N-methyl-3-(1-methyl-1H-indazol-5-yl)imidazo[1,2-a]pyrazine-6-carboxamide] | 1570 nM
12 | Cc1cc(-c2cnc3cnc(C(=O)N(C)c4ccc(C#N)cc4)cn23)ccn1 [Compound 378, N-(4-cyanophenyl)-N-methyl-3-(2-methylpyridin-4-yl)imidazo[1,2-a]pyrazine-6-carboxamide] | > 7030 nM
13 | CNC(=O)c1ccc(-c2cnc3cnc(C(=O)N(C)c4ccc(F)cc4)cn23)cc1 [Compound 244, N-(4-fluorophenyl)-N-methyl-3-[4-(methylcarbamoyl)phenyl]imidazo[1,2-a]pyrazine-6-carboxamide] | 290 nM
14 | CN(C(=O)c1cn2c(-c3ccc(NC(=O)CN)cc3)cnc2cn1)c1ccc(C#N)cc1 [Compound 247, 3-[4-(2-aminoacetamido)phenyl]-N-(4-cyanophenyl)-N-methylimidazo[1,2-a]pyrazine-6-carboxamide] | 611 nM
15 | FC(F)(F)c1ccc(-c2cnc3cnc(CN4CCOCC4)cn23)cc1 [Compound 392, 4-({3-[4-(trifluoromethyl)phenyl]imidazo[1,2-a]pyrazin-6-yl}methyl)morpholine] | 3250 nM

Reference: patent US20150291598A1 (NOVARTIS AG, priority 2012, published 2015)
